Results as given in patent publication US10981879B2, “Thioether triazolopyridine and triazolopyrimidine inhibitors of myeloperoxidase” (BRISTOL-MYERS SQUIBB COMPANY, priority 2014, dated 2021).

The compounds below were run against myeloperoxidase (MPO) (Homo sapiens (Human), UniProt P05164) (assay: MPO chlorination assay (APF)). Conditions: not given.
Format: biochemical
Procedure: MPO chlorination activity was measured in 100 mM KPi (pH 7.4) by utilizing the non-fluorescent reagent Aminophenyl fluorescein (APF, Invitrogen catalog #A36003). APF is cleaved by (—OCl) to yield the fluorescent compound fluorescein. Reactions were carried out in 50 μL total volume by adding a 25 μL mixture of 200 pM myeloperoxidase and 120 mM NaCl to 100 nL inhibitor in 100% DMSO in a 384 well, non-binding surface clear bottom plate (CORNING® #3655). Enzyme, inhibitor, and chloride were preincubated for ten minutes at rt.
After the ten minute preincubation, 25 μL of an APF mixture containing […], 120 mM NaCl and 10 μM H2O2 was added to the plate using the internal dispensing system of a Hammatsu FDSS 6000. Kinetic determinations were carried out immediately on the FDSS 6000 (3 minute kinetic read, 1 read every second, ex: 485 nm, em: 535 nm). IC50 values for inhibitors were calculated by taking the slope of the linear portion of the kinetic measurement (20 seconds to ˜80-120 secs). […]
[formula] where A=minimal Y value (activity level of inhibited sample), B=maximal Y value (activity level of uninhibited sample), C=Log IC50, D=Hill Slope, x=concentration of inhibitor. EPX Bromination Assay

myeloperoxidase (MPO), sequence (P05164 49-745): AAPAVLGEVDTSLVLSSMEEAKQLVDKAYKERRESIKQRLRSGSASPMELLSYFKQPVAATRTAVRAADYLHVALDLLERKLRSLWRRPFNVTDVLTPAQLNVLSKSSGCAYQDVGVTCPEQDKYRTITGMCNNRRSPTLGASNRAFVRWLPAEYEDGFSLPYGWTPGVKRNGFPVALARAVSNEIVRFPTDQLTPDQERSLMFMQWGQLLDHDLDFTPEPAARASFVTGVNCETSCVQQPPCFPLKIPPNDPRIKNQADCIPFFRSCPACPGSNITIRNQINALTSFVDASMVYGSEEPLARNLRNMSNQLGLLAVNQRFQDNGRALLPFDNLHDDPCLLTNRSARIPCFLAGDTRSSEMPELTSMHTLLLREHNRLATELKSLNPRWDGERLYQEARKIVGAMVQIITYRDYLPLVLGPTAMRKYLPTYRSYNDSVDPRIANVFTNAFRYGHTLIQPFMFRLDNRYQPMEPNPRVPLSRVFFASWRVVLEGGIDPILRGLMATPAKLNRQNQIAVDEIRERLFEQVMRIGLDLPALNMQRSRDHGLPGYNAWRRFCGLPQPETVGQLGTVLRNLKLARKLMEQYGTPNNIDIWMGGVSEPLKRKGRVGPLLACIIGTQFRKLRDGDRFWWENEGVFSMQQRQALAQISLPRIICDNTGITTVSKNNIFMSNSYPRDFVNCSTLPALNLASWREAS

Row | Structure (SMILES) | IC50
1 | Nc1cc(SCc2cn(-c3cnccn3)nc2C(F)F)c2nn[nH]c2n1 [Example 152, 7-(((3-(difluoromethyl)-1-(pyrazin-2-yl)-1H-pyrazol-4-yl)methyl)thio)-3H-[1,2,3]triazolo [4,5-b]pyridin-5-amine] | 200 to 1000 nM

Same assay, conditions: MPO chlorination assay, ranges given; read-out: MPO chlorination assay IC50

Row | Structure (SMILES) | IC50
2 | Nc1cc(SCc2cn(-c3ccccc3)nc2C2CC2)c2nn[nH]c2n1 [Example 134, 7-(((3-Cyclopropyl-1-phenyl-1H-pyrazol-4-yl)methyl)thio)-3H-[1,2,3]triazolo[4,5-b]pyridin-5-amine] | ≤ 60 nM
3 | CN(C)CCC(Sc1cc(N)nc2[nH]nnc12)c1ccccc1 (stereo not drawn) [Example 44, 7-((3-(dimethylamino)-1-phenylpropyl)thio)-3H-[1,2,3]triazolo[4,5-b]pyridin-5-amine] | 60 to 200 nM
4 | Nc1cc(SCc2cccc(CO)n2)c2nn[nH]c2n1 [Example 25, (6-(((5-amino-3H-[1,2,3]triazolo[4,5-b]pyridin-7-yl)thio)methyl)pyridin-2-yl) methanol] | 60 to 200 nM
5 | Nc1cc(SCc2ccc(Cl)cc2)c2nn[nH]c2n1 [Example 8, 7-((4-chlorobenzyl)thio)-3H-[1,2,3]triazolo [4,5-b]pyridin-5-amine] | ≤ 60 nM
6 | N#Cc1cccc(F)c1CSc1cc(N)nc2[nH]nnc12 [Example 68, 2-(((5-amino-3H-[1,2,3]triazolo[4,5-b]pyridin-7-yl)thio)methyl)-3-fluorobenzonitrile] | ≤ 60 nM
7 | N#Cc1ccc(C2CC2)cc1CSc1cc(N)nc2[nH]nnc12 [Example 87, 2-(((5-amino-3H-[1,2,3]triazolo[4,5-b]pyridin-7-yl)thio)methyl)-4-cyclopropylbenzonitrile] | ≤ 60 nM
8 | CC(Sc1cc(N)nc2[nH]nnc12)c1ccccc1C(F)(F)F (stereo not drawn) [Example 30, 7-((1-(2-(trifluoromethyl)phenyl)ethyl)thio)-3H-[1,2,3]triazolo[4,5-b]pyridin-5-amine] | 60 to 200 nM
9 | CN(C)Cc1cccc(-n2cc(CSc3cc(N)nc4[nH]nnc34)c(C(F)F)n2)c1 [Example 148, 7-(((3-(difluoromethyl)-1-(3-((dimethylamino)methyl)phenyl)-1H-pyrazol-4-yl)methyl)thio)-3H-[1,2,3]triazolo [4,5-b]pyridin-5-amine] | ≤ 60 nM
10 | Nc1cc(SCc2ccccc2Cl)c2nn[nH]c2n1 [Example 4, 7-((2-chlorobenzyl)thio)-3H-[1,2,3]triazolo [4,5-b]pyridin-5-amine] | ≤ 60 nM
11 | Nc1cc(SCc2cc(F)ccc2F)c2nn[nH]c2n1 [Example 19, 7-((2,5-difluorobenzyl)thio)-3H-[1,2,3]triazolo[4,5-b] pyridin-5-amine] | ≤ 60 nM
12 | Nc1cc(SCc2cn(-c3ccncc3)nc2C(F)(F)F)c2nn[nH]c2n1 [Example 137] | ≤ 60 nM
13 | Cc1oc(-c2c(F)cc(F)cc2F)nc1CSc1cc(N)nc2[nH]nnc12 [Example 37, 7-(((5-methyl-2-(2,4,6-trifluorophenyl)oxazol-4-yl)methyl)thio)-3H-[1,2,3] triazolo[4,5-b]pyridin-5-amine] | 200 to 1000 nM
14 | Nc1cc(SCc2ccccc2)c2nn[nH]c2n1 [Example 1, 7-(Benzylthio)-3H-[1,2,3]triazolo[4,5-b]pyridin-5-amine] | ≤ 60 nM
15 | COC(=O)c1ccc(F)c(CSc2cc(N)nc3[nH]nnc23)c1 [Example 52, methyl 3-(((5-amino-3H-[1,2,3]triazolo[4,5-b]pyridin-7-yl)thio)methyl)-4-fluorobenzoate] | 60 to 200 nM
16 | CN(C)c1cc(-n2cc(CSc3cc(N)nc4[nH]nnc34)c(C(F)(F)F)n2)ccn1 [Example 141, 7-(((1-(2-(dimethylamino)pyridin-4-yl)-3-(trifluoromethyl)-1H-pyrazol-4-yl)methyl)thio)-3H-[1,2,3]triazolo [4,5-b]pyridin-5-amine] | ≤ 60 nM

Now from value to compound:

Row | IC50 | Structure (SMILES)
17 | 200 to 1000 nM | Cc1nn(-c2cccc(F)c2)nc1CSc1cc(N)nc2[nH]nnc12 [Example 67, 7-(((2-(3-fluorophenyl)-5-methyl-2H-1,2,3-triazol-4-yl)methyl)thio)-3H-[1,2,3] triazolo[4,5-b]pyridin-5-amine]
18 | 60 to 200 nM | Cn1nc(CSc2cc(N)nc3[nH]nnc23)cc1-c1ccccc1 [Example 103, 7-(((1-methyl-5-phenyl-1H-pyrazol-3-yl)methyl)thio)-3H-[1,2,3]triazolo[4,5-b] pyridin-5-amine]
19 | 200 to 1000 nM | N#Cc1ccc(C2CC2)c(CSc2nc(N)nc3[nH]nnc23)c1 [Example 161, 3-(((5-amino-3H-[1,2,3]triazolo[4,5-d]pyrimidin-7-yl)thio)methyl)-4-cyclopropylbenzonitrile]
20 | 60 to 200 nM | CN(C)Cc1ccc(F)c(CSc2cc(N)nc3[nH]nnc23)c1 [Example 99, 7-((5-((dimethylamino)methyl)-2-fluorobenzyl)thio)-3H-[1,2,3]triazolo[4,5-b]pyridin-5-amine]
21 | 60 to 200 nM | CCOC(=O)C(Sc1cc(N)nc2[nH]nnc12)c1ccccc1 (stereo not drawn) [Example 106, ethyl 2-((5-amino-3H-[1,2,3]triazolo[4,5-b]pyridin-7-yl)thio)-2-phenylacetate]
22 | 60 to 200 nM | N#Cc1cccc(C2CC2)c1CSc1cc(N)nc2[nH]nnc12 [Example 89, 2-(((5-amino-3H-[1,2,3]triazolo[4,5-b]pyridin-7-yl)thio)methyl)-3-cyclopropylbenzonitrile]
23 | 60 to 200 nM | Nc1cc(SCc2cn(C3CCCCC3)nc2C(F)(F)F)c2nn[nH]c2n1 [Example 115, 7-(((1-cyclohexyl-3-(trifluoromethyl)-1H-pyrazol-4-yl)methyl)thio)-3H-[1,2,3]triazolo[4,5-b] pyridin-5-amine]
24 | 200 to 1000 nM | Cn1ncc2c(CSc3nc(N)nc4[nH]nnc34)cccc21 [Example 162, 7-(((1-methyl-1H-indazol-4-yl)methyl)thio)-3H-[1,2,3]triazolo[4,5-d] pyrimidin-5-amine]
25 | 60 to 200 nM | CS(=O)(=O)c1cccc(Cl)c1CSc1cc(N)nc2[nH]nnc12 [Example 102, 7-((2-chloro-6-(methylsulfonyl)benzyl)thio)-3H-[1,2,3]triazolo[4,5-b]pyridin-5-amine]
26 | 60 to 200 nM | Nc1cc(SCc2cnn(-c3ccccc3)c2C(F)(F)F)c2nn[nH]c2n1 [Example 114, 7-(((1-phenyl-5-(trifluoromethyl)-1H-pyrazol-4-yl)methyl)thio)-3H-[1,2,3]triazolo[4,5-b] pyridin-5-amine]
27 | 60 to 200 nM | N#Cc1ccc(-n2cccn2)c(CSc2cc(N)nc3[nH]nnc23)c1 [Example 132, 3-(((5-amino-3H-[1,2,3]triazolo[4,5-b]pyridin-7-yl)thio)methyl)-4-(1H-pyrazol-1-yl) benzonitrile]
28 | 60 to 200 nM | Nc1cc(SCc2cc(Cl)ccc2S(=O)(=O)Cc2ccccc2)c2nn[nH]c2n1 [Example 61, 7-((2-(benzylsulfonyl)-5-chlorobenzyl)thio)-3H-[1,2,3]triazolo[4,5-b]pyridin-5-amine]
29 | 200 to 1000 nM | Cn1nc(C(F)(F)F)c(CSc2nc(N)nc3[nH]nnc23)c1F [Example 160, 7-(((5-fluoro-1-methyl-3-(trifluoromethyl)-1H-pyrazol-4-yl)methyl)thio)-3H-[1,2,3]triazolo[4,5-d] pyrimidin-5-amine]
30 | 60 to 200 nM | N#Cc1ccc(OC2CC2)cc1CSc1cc(N)nc2[nH]nnc12 [Example 110, 2-(((5-amino-3H-[1,2,3]triazolo[4,5-b]pyridin-7-yl)thio)methyl)-4-cyclopropoxybenzonitrile]
